Assays:
[1] = target: T1, cytoplasmic domain of the human CSF-1R (Homo sapiens, UniProt P07333); test: In vitro kinase assay for CSF-1R (AlphaScreen); format: biochemical; details: tested at about 1 μM
T1 construct: Recombinant protein corresponding to the cytoplasmic domain of the human CSF-1R; purchased Invitrogen Corporation, Carlsbad, Calif; U.S.A. PV3249
T1 sequence (P07333 539-972 limits assumed): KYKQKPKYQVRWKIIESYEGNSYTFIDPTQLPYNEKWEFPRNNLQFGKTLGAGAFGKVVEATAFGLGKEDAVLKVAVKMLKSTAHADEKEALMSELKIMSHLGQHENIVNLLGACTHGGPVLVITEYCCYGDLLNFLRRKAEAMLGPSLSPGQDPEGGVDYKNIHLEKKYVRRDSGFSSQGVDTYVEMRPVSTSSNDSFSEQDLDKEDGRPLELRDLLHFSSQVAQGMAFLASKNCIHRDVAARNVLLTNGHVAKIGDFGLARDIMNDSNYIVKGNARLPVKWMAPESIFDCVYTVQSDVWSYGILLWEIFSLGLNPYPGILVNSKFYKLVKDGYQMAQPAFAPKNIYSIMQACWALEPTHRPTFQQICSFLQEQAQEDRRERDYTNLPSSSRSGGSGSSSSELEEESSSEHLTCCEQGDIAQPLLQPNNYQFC
Protocol: The kinase activity of various protein tyrosine kinases can be measured by providing ATP and a suitable peptide or protein tyrosine-containing substrate, and assaying the transfer of phosphate moiety to the tyrosine residue. Recombinant protein corresponding to the cytoplasmic domain of the human CSF-1R was purchased from Invitrogen Corporation, Carlsbad, Calif. U.S.A. (#PV3249). For each assay, test compounds were serially diluted, starting at 25 μM with 3 fold dilutions, in DMSO in 384 well plates then mixed with an appropriate kinase reaction buffer consisting of 50 mM Hepes, 5 mM MgCl2, 10 mM MnCl2, 0.1% BSA, pH 7.5, 1.0 mM dithiothreitol, 0.01% Tween 80 plus […]. Kinase protein and an appropriate biotinylated peptide substrate at 50 nM were added to give a final volume of 20 μL, reactions were incubated for 2 hours at room temperature and stopped by the addition of 10 μL of 45 mM EDTA, 50 mM Hepes pH 7.5. Added to the stopped reaction mix was 30 μL of PT66 Alphascreen beads (Perkin Elmer, Boston, Mass., U.S.A.). The reaction was incubated overnight and read on the Envision (Perkin Elmer). Phosphorylated peptide product was measured with the AlphaScreen system (Perkin Elmer) using acceptor beads coated with anti-phosphotyrosine antibody PT66 and donor beads coated with streptavidin that emit a fluorescent signal at the 520-620 nm emission wave length if in close proximity. The concentration of each compound for 50% inhibition (IC50) was calculated by non-linear regression using XL Fit data analysis software.
CSF-1R kinase was assayed in 50 mM Hepes pH 7.0, 5 mM MgCl2, 10 mM MnCl2, 1 mM DTT, 1 mg/mL BSA, 1.0 μM ATP, and 0.05 μM biotin-GGGGRPRAATF-NH2 (SEQ ID NO:2) peptide substrate. CSF-1R kinase was added at final concentration of 4 nM.

cKIT = target: T2, cKIT (Homo sapiens, UniProt P10721); test: Inhibition of cKIT kinase in an in vitro biochemical assay (alphascreen); details: tested at about 1 μM
T2 construct: The kinase domain of cKIT was assayed in 50 mM Hepes; purchased Upstate 14-559
Protocol: (§1) The IC50 values for the inhibition of RTKs were determined in the alphascreen format measuring the inhibition by compound of phosphate transfer to a substrate by the respective enzyme. Briefly, the respective RTK domain purchased as human recombinant protein (cKIT Upstate #14-559, PDGFRb Invitrogen #P3082) were incubated with serial dilutions of compound in the presence of substrate and ATP concentrations within 3 times the Km of the enzyme.
(§2) The kinase domain of cKIT was assayed in 50 mM Hepes, pH=7.5, 5 mM MgCl2, 10 mM MnCl2, 1 mM DTT, 0.1% BSA with 0.06 uM biotinylated peptide substrate (GGLFDDPSYVNVQNL-NH2) and 15 μM ATP (ATP KM apparent =15 μM). The kinase domain of PDGFRβ was assayed in 50 mM Hepes, pH=7.5, 20 mM MgCl2, 1 mM DTT, 0.1% BSA with 0.1 μM biotinylated peptide substrate (GGLFDDPSYVNVQNL-NH2) and 10 μM ATP (ATP KM apparent=25 μM). Reactions were incubated at room temperature for 3 to 4 hr and stopped with buffer (20 mM EDTA, 0.01% Tween-20 for both PDGFRβ and cKIT). Alphascreen PY20 beads were added to the stopped cKIT reactions and PY20 Ab/Protein A Alphascreen beads were added to the PDGFRβ stopped reactions. Both reactions were incubated overnight and read on the Alphascreen reader. The concentration of compound for 50% inhibition (IC50) was calculated employing non-linear regression using XL-Fit data analysis software. As a control compound, staurosporine is run in every assay and a Z′>0.5 is required to validate results.

PDGFRb = target: T3, PDGFRb (Homo sapiens, UniProt P09619); test: Inhibition of PDGFRb kinase in an in vitro biochemical assay (alphascreen); details: tested at about 1 μM; read-out: PDGFR % inhibition at 1 μM
T3 construct: The kinase domain of PDGFRβ was assayed in 50 mM Hepes; purchased Invitrogen P3082
Protocol: as §1, §2

T3 sequence (P09619 600-962 limits assumed): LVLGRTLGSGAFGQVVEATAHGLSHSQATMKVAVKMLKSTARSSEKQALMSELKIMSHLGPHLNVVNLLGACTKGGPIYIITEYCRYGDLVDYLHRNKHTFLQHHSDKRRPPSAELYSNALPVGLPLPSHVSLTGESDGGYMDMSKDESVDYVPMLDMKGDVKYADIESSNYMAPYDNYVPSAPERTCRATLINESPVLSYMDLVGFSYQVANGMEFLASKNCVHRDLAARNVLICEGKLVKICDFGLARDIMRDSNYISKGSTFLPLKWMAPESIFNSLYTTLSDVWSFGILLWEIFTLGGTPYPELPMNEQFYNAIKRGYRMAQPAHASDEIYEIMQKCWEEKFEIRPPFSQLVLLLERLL
T2 sequence (P10721 589-937 limits assumed): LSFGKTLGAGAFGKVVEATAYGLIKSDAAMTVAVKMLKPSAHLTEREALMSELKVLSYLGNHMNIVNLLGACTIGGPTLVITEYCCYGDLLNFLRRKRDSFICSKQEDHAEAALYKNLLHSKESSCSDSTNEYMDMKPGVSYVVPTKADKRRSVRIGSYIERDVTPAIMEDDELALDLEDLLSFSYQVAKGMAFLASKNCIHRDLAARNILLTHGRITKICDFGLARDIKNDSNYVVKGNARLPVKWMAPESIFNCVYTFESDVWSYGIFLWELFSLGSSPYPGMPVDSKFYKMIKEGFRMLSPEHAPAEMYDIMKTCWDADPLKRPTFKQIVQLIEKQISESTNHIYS

Row | inhibition at 1 µM [1] [%] | inhibition at 1 µM (cKIT) [%] | inhibition at 1 µM (PDGFRb) [%] | Compound
1 | 100 | 13 | < 1 | CNC(=O)c1cc(Oc2ccc3nc(Nc4cccc5c4OCCO5)ncc3c2)ccn1 [Example 40, 4-(2-(2,3-dihydrobenzo[b][1,4]dioxin-5-ylamino)quinazolin-6-yloxy)-N-methylpicolinamide]
2 | 100 | 6 | 92 | CNC(=O)c1cc(Oc2ccc3nc(NCc4ccccc4N4CCOCC4)ncc3c2)ccn1 [Example 41, N-methyl-4-(2-(2-morpholinobenzylamino)quinazolin-6-yloxy)picolinamide]
3 | 100 | 99 | 66 | CNC(=O)c1cc(Oc2ccc3nc(NCc4cccc5c4OCCO5)ncc3c2)ccn1 [Example 42, 4-(2-((2,3-dihydrobenzo[b][1,4]dioxin-5-yl)methylamino)quinazolin-6-yloxy)-N-methylpicolinamide]
4 | 98 | 24 | < 1 | CNC(=O)c1cc(Oc2ccc3nc(NCc4ccc5c(c4)OCCO5)ncc3c2)ccn1 [Example 43, 4-(2-((2,3-dihydrobenzo[b][1,4]dioxin-6-yl)methylamino)quinazolin-6-yloxy)-N-methylpicolinamide]
5 | 99 | 44 | 3 | CNC(=O)c1cc(Oc2ccc3nc(Nc4ccccc4OC)ncc3c2)ccn1 [Example 44, 4-(2-(2-methoxyphenylamino)quinazolin-6-yloxy)-N-methylpicolinamide]
6 | 99 | 38 | 12 | CCOc1ccccc1Nc1ncc2cc(Oc3ccnc(C(=O)NC)c3)ccc2n1 [Example 45, 4-(2-(2-ethoxyphenylamino)quinazolin-6-yloxy)-N-methylpicolinamide]
7 | 100 | 27 | 17 | CNC(=O)c1cc(Oc2ccc3nc(Nc4ccccc4OC(C)C)ncc3c2)ccn1 [Example 46, 4-(2-(2-isopropoxyphenylamino)quinazolin-6-yloxy)-N-methylpicolinamide]
8 | 98 | 18 | 15 | CNC(=O)c1cc(Oc2ccc3nc(NC(C)c4nccs4)ncc3c2)ccn1 (stereo not drawn) [Example 48, N-methyl-4-(2-(1-(thiazol-2-yl)ethylamino)quinazolin-6-yloxy)picolinamide]
9 | 52 | 7 | 9 | CCCNc1ncc2cc(Oc3ccnc(C(=O)NC)c3)ccc2n1 [Example 52, N-methyl-4-(2-(propylamino)quinazolin-6-yloxy)picolinamide]
10 | 83 | < 1 | 9 | CNC(=O)c1cc(Oc2ccc3nc(NCC4CC4)ncc3c2)ccn1 [Example 53, 4-(2-(cyclopropylmethylamino)quinazolin-6-yloxy)-N-methylpicolinamide]
11 | 65 | 47 | 20 | CNC(=O)c1cc(Oc2ccc3nc(Nc4ccccc4N4CCN(C)CC4)ncc3c2)ccn1 [Example 54, N-methyl-4-(2-(2-(4-methylpiperazin-1-yl)phenylamino)quinazolin-6-yloxy)picolinamide]
12 | 99 | 42 | 6 | CNC(=O)c1cc(Oc2ccc3nc(OCC4CCCCC4)ncc3c2)ccn1 [Example 55, 4-(2-(cyclohexylmethoxy)quinazolin-6-yloxy)-N-methylpicolinamide]
13 | 84 | 17 | < 1 | CCOC(=O)N1CCC(Nc2ncc3cc(Oc4ccnc(C(=O)NC)c4)ccc3n2)CC1 [Example 56, ethyl 4-(6-(2-(methylcarbamoyl)pyridin-4-yloxy)quinazolin-2-ylamino)piperidine-1-carboxylate]
14 | 93 | 12 | 2 | CNC(=O)c1cc(Oc2ccc3nc(NC4CCN(C(=O)OC(C)(C)C)CC4)ncc3c2)ccn1 [Example 57, tert-butyl 4-(6-(2-(methylcarbamoyl)pyridin-4-yloxy)quinazolin-2-ylamino)piperidine-1-carboxylate]
15 | 65 | 8 | < 1 | CNC(=O)c1cc(Oc2ccc3nc(NC4CCOCC4)ncc3c2)ccn1 [Example 58, N-methyl-4-(2-(tetrahydro-2H-pyran-4-ylamino)quinazolin-6-yloxy)picolinamide]
16 | 99 | 13 | 13 | CNC(=O)c1cc(Oc2ccc3nc(NC(=O)C4CCCCC4)ncc3c2)ccn1 [Example 59, 4-(2-(cyclohexanecarboxamido)quinazolin-6-yloxy)-N-methylpicolinamide]
17 | 97 | 17 | 12 | CNC(=O)c1cc(Oc2ccc3nc(NC(=O)NC4CCCCC4)ncc3c2)ccn1 [Example 60, 4-(2-(3-cyclohexylureido)quinazolin-6-yloxy)-N-methylpicolinamide]
18 | 93 | 12 | < 1 | CNC(=O)c1cc(Oc2ccc3nc(NCC(C)(C)N4CCOCC4)ncc3c2)ccn1 [Example 61, N-methyl-4-(2-(2-methyl-2-morpholinopropylamino)quinazolin-6-yloxy)picolinamide]
19 | 99 | 16 | 7 | CNC(=O)c1cc(Oc2ccc3nc(N[C@@H](C)c4ccccc4)ncc3c2)ccn1 [Example 64, (S)-N-methyl-4-(2-(1-phenylethylamino)quinazolin-6-yloxy)picolinamide]
20 | 96 | 13 | < 1 | CNC(=O)c1cc(Oc2ccc3nc(NC4CCCC4)ncc3c2)ccn1 [Example 66, 4-(2-(cyclopentylamino)quinazolin-6-yloxy)-N-methylpicolinamide]
21 | 96 | 13 | < 1 | CNC(=O)c1cc(Oc2ccc3nc(Nc4ccccc4CN4CCOCC4)ncc3c2)ccn1 [Example 67, N-methyl-4-(2-(2-(morpholinomethyl)phenylamino)quinazolin-6-yloxy)picolinamide]
22 | 98 | 10 | 2 | CNC(=O)c1cc(Oc2ccc3nc(Nc4cccc5c4OC(F)(F)O5)ncc3c2)ccn1 [Example 68, 4-(2-(2,2-difluorobenzo[d][1,3]dioxol-4-ylamino)quinazolin-6-yloxy)-N-methylpicolinamide]

— patent publication US20100261679A1 (priority 2007, published 2010)
